Results from US20060240474A1, “Peptides able to switch between two structural states and their use” (UNIVERSITY OF SUSSEX, priority 2002, published 2006).
Values belong to the molecule of their own block, whether it stands above or below them. Where a SMILES comes first, the peptide text is derived from it. Bridges are numbered along the chain shown (N, C = ends). Where no end group is shown, it is not given here. The star is where a group is joined. Cam = NC(=O)C*

Legend:
[1] = Circular dichroism spectroscopy (helicity); assay type: physicochemical; details: pH 7; comparator named in the value
Description: (§1) Circular dichroism spectroscopy. CD measurements were made using a JASCO J-715 spectropolarimeter fitted with a Peltier temperature controller. Peptide solutions were prepared in 25 mM potassium phosphate buffer at pH 7 and were examined in 1 mm or 1 cm quartz cuvettes (with stirring). Spectra were recorded at 5° C. using 1 nm intervals, a 1 nm bandwidth and 4 sec response time. Thermal unfolding curves were recorded through 1° C. min^−1 ramps using a 2 nm bandwidth, averaging the signal for 16 s every 1° C. intervals. After baseline correction, ellipticities in mdeg were converted to molar ellipticities (deg cm^2 dmol-res-^−1) by normalising for the concentration of peptide bonds.

[2] = Thermal unfolding followed by CD spectroscopy; assay type: physicochemical; details: comparator named in the value
Description: as §1

[3] = Conformational switching of oxidised CSP-3 to the reduced form, CD time scan at 222 nm; assay type: physicochemical; details: 20-fold excess (2 mM)
Description: The molar ellipticity at 222 nm was recorded. To induce the switch of the peptide from its oxidised to its reduced form a reducing agent for the disulphide bond was added. Two reducing agents were used for comparison, DTE and β-mercaptoethanol, in 20-fold excess (2 mM). […] The time taken to initiate the scan after addition of reducing agent was noted. […] A wavelength scan (190-260 nm) was run for each sample once the switch experiment was complete to record the spectrum of the reduced peptide. The data obtained from the time course reaction was analysed using the data analysis program Origin (v. 11) (see FIG. 5) A single exponential curve for a first order reaction has been fitted to the data from a switch experiment, using the data analysis program Origin. The equation for the curve is: y=Ae^−kt+B where A=amplitude of signal • B=[…] • k=rate constant • t=time […]

[4] = Sedimentation equilibrium analytical ultracentrifugation (monomer-dimer equilibrium); assay type: physicochemical; details: monomer-dimer fit, 5° C., pH 7; read-out: KD (95% confidence limits)
Description: Sedimentation equilibrium experiments were conducted at 5° C. in a Beckman-Optima XL-I analytical ultracentrifuge fitted with an An-60 Ti rotor. A […] peptide solution at […] in 25 mM K phosphate buffer pH 7 containing 0.1 M KCl was equilibrated for 48 h at speeds of 40 000, 47 500/50 000 and 55 000/60 000 rpm. […] The molecular weights (Table 2) and partial specific volumes (range 0.7417 to 0.7461) of the peptides were calculated from their amino-acid sequences, and the viscosity of the buffer at 5° C. was taken to be […].

[5] = molecular target: the molecule itself; test: sedimentation equilibrium (AUC), self-association
Description: (§2) Sedimentation equilibrium experiments were conducted at 5° C. in a Beckman-Optima XL-I analytical ultracentrifuge fitted with an An-60 Ti rotor. A […] peptide solution at […] in 25 mM K phosphate buffer pH 7 containing 0.1 M KCl was equilibrated for 48 h at speeds of 40 000, 47 500/50 000 and 55 000/60 000 rpm. Data were fitted simultaneously assuming either a single ideal species or a monomer-dimer equilibrium and fixed monomer molecular weight, using routines in the Beckman-Optima XL-A/XLI-I data analysis software (v4.0). The molecular weights (Table 2) and partial specific volumes (range 0.7417 to 0.7461) of the peptides were calculated from their amino-acid sequences, and the viscosity of the buffer at 5° C. was taken to be […].

[6] = molecular target: the molecule itself; test: sedimentation equilibrium AUC, poor monomer-dimer fit, 5 C (homodimerisation)
Description: as §2
However, the reduced form of the peptide, CSP-2r, was only partially folded as judged from CD spectra (consistent with only ˜20% helix) (see FIG. 3A). […] (see FIG. 3B). […] The data fitted best assuming a single ideal species, and returned a molecular weight close to that expected for monomer (see Table 2). Fits to monomer-dimer were poor and gave weak dissociation constants in the 10-100 mM range.

Molecule: CC[C@H](C)[C@@H]1NC(=O)[C@H](CCCCN)NC(=O)[C@H](CCC(N)=O)NC(=O)[C@H](CCC(=O)O)NC(=O)[C@H](CC(C)C)NC(=O)[C@H](C)NC(=O)[C@H](CCCNC(=N)N)NC(=O)[C@H]([C@@H](C)CC)NC(=O)[C@H](CCCCN)NC(=O)[C@H](C)NC(=O)[C@H](CCC(N)=O)NC(=O)[C@H](CCCCN)NC(=O)[C@H](C)NC(=O)[C@H](CCC(N)=O)NC(=O)[C@H](CCCCN)NC(=O)[C@H](CC(C)C)NC(=O)[C@H](CCCNC(=N)N)NC(=O)[C@H](C)NC(=O)[C@H]([C@@H](C)CC)NC(=O)[C@H](CCC(=O)O)NC(=O)[C@H](Cc2ccc(O)cc2)NC(=O)[C@H](CCCCN)NC(=O)[C@H](CC(C)C)NC(=O)[C@H](C)NC(=O)[C@H](CCCNC(=N)N)NC(=O)[C@H]([C@@H](C)CC)NC(=O)[C@H](CCC(=O)O)NC(=O)CNC(=O)CNC(=O)[C@@H](N)CSSC[C@@H](C(=O)O)NC(=O)CNC(=O)CNC(=O)[C@H](CCC(=O)O)NC(=O)[C@H](CC(C)C)NC(=O)[C@H](C)NC(=O)[C@H](C)NC1=O [CSP-3o] (H-CGGEIRALKYEIARLKQAKQAKIRALEQKIAALEGGC-OH; disulfide 1-37; N-terminus and C-terminus assumed)
helicity compared with other designs (CD signal at 222 nm) [1]: marginally improved helicity and thermal stability over CSP-2o
thermal stability in words [2]: marginally improved helicity and thermal stability over CSP-2o
time taken for reduction to complete ([3]; with DTE): 75 min
time taken for reduction to complete ([3]; with βME): 180 min

Kd [4]: 0.033 mM
Molecule: CGGEIRALKYEIARLKQ----KKRALEQKIAALEGGC [CSP-1r]

B1: CSP-2o (intra-molecularly oxidised) (peptide)
peptide: CGGEIRALKYEIARLKQGGGGKKRALEQKIAALEGGC
modifications: disulfide 1-37
notes: also called design iteration 2, oxidised; CSP-4o (Maya's nomenclature)
binding result [5]: no binding

B2: CSP-2r (reduced and alkylated) (peptide)
peptide: C(Cam)GGEIRALKYEIARLKQGGGGKKRALEQKIAALEGGC(Cam)
notes: CSP-1 with a tetraglycine insert; also called design iteration 2, reduced & alkylated; CSP-4a (Maya's nomenclature)
Kd [6]: 10 to 100 mM
